# Data as given in US8338624B2, “Isoflavone derivatives and uses thereof” (Yeda Research and Development Co., Ltd., priority 2007, dated 2012).
# Experiments:
# K-562 leukemia cell line = test: NCI In Vitro Cell Line Screening, K-562; type: cell-based; details: Homo sapiens, K562, read-out: log10 GI50 (converted)
# Procedure: (§1) An in vitro cell line screen for the t-boc derivative of daidzein (compound 9) was performed at the NCI/NIH US utilizing the In Vitro Cell Line Screening Project (IVCLSP) (National Cancer Institute, Developmental Therapeutics Program, Information Technology Branch, Rockville, Md., USA).
# (§2) The operation of this screen utilized 60 different human tumor cell lines, representing leukemia, melanoma and cancers of the lung, colon, brain, ovary, breast, prostate, and kidney. […] Using these algorithms, it is possible to assign a putative mechanism of action to a test compound, or to determine that the response pattern is unique and not similar to that of any of the standard prototype compounds included in the NCI database.
# (§3) To facilitate analysis of the data, three endpoints were calculated for each cell line: The GI50 value, which is the negative log10 of the concentration required to inhibit the growth of that cell line by 50% (relative to untreated cells); TGI, the negative log10 of minimum concentration that causes total growth inhibition; and LC50, which reflects the negative log10 concentration needed to kill 50% of the cells. A Mean Graph was used as a way of easily visualizing the results from all 60 cell lines at once. To generate this graph, the mean of GI50 values across all 60 cell lines was calculated. […]
# [1] = test system: MDA-MB-435 breast cancer cell line; test: NCI In Vitro Cell Line Screening, MDA-MB-435; type: cell-based; details: Homo sapiens, read-out: log10 GI50 (converted)
# Procedure: as §1, §2, §3
# [2] = test system: human prostate C4-2B cancer cells; test: DNA synthesis by [3H]-thymidine incorporation, C4-2B cells; type: cell-based
# Procedure: (§4) Cells were cultured in MEM supplemented with 10% FCS and antibiotics. Cells were grown to subconfluence and then treated with various hormones or agents as described by Somjen et al. (Somjen et al., 1998). The cells were characterized in terms of expression of mRNAs for estrogen […] by real time PCR, and the results are summarized in Table 1. N87, 320DM and H295R cells expressed mRNAs for both ERs. The ratio of ERα to ERβ was 1:8.5, 1:30 and 1:1.8 in N87, 320DM and H295R cells, respectively. Ovarian A2780 and prostate C4-24 cells expressed mainly mRNA for ERβ, and the ratio of ERβ to ERα was 300:1 and 70:1, respectively. MLS ovarian cells expressed mRNA only for ERβ. The ratio of ERα to ERβ in T47D cells has been reported to be 9:1.
# (§5) [^3H]-Thymidine incorporation into DNA was used for the assessment of the various effects (proliferative or inhibitory) of various isoflavones, isoflavone derivatives and known cytotoxic drugs in the above-mentioned cells. Cells were grown until subconfluence using conditions described in Somjen et al. (Somjen et al., 1998) and then treated with various agents for 24 or 48 h as indicated. At the end of incubation, [^3H]-thymidine was added for two hours. Cells were then treated with 10% ice-cold trichloroacetic (TCA) for 5 min and washed twice with 5% TCA and then with cold ethanol. The cellular layer was dissolved in 0.3 ml of 0.3 M NaOH, aliquots were taken for counting radioactivity, and [^3H]-thymidine incorporation into DNA was calculated.
# [3] = test system: H295R adrenocarcinoma cells; test: DNA synthesis by [3H]-thymidine incorporation, H295R cells; type: cell-based, human
# Procedure: as §4, §5
# [4] = test system: T47D mammary cancer cells; test: DNA synthesis by [3H]-thymidine incorporation, T47D cells; type: cell-based, human; details: Homo sapiens
# Procedure: as §4, §5
# [5] = test system: EKVX non small lung cancer cell line; test: NCI In Vitro Cell Line Screening, EKVX; type: cell-based; details: Homo sapiens, read-out: log10 GI50 (converted)
# Procedure: as §1, §2, §3
# [6] = test system: Human umbilical vascular smooth muscle cells (VSMC); test: DNA synthesis by [3H]-thymidine incorporation, normal VSMC; type: cell-based; details: compound at 3 μM
# Procedure: Human umbilical vascular smooth muscle cells (VSMC) sensitive to estrogen, were grown in culture as described above, and used only at passages 1-3, when expression of smooth muscle actin was clearly demonstrable (Somjen et al. 2000). The ratio of the expression of mRNA for ERα to ERβ was 2.7:1.
# as §5
# [7] = test system: SK-MEL-5 melanoma cell line; test: NCI In Vitro Cell Line Screening, SK-MEL-5; type: cell-based; details: Homo sapiens, read-out: log10 GI50 (converted)
# Procedure: as §1, §2, §3
# MLS ovarian cancer cells = test: DNA synthesis by [3H]-thymidine incorporation, MLS cells; type: cell-based, human
# Procedure: as §4, §5
# [8] = test system: A2780 ovarian cancer cells; test: DNA synthesis by [3H]-thymidine incorporation, A2780 cells; type: cell-based, human; details: compound at 3 μM
# Procedure: as §4, §5
# MLS ovarian xenografts = MLS ovarian xenografts in nude mice; type: in vivo; details: 9 iv 400 μg/mouse every other day
# Text: Female CD1 nude mice (8-week old, ˜30 g) were housed and handled with free access to food and water in the animal facility according to the guidelines (1996) of the Institutional Animal Care and Use Committee of the Weizmann Institute of Science, Rehovot, Israel.
# Thirty female nude mice (8 weeks old) were inoculated sub-cutaneously (sc) with MLS ovarian carcinoma cells (1.5×10^6/mouse). Ten days later, when the tumors were palpable, the mice were randomly divided into 3 groups (8-10 mice/group). The mice in each group were iv injected every other day either with a vehicle (Neowater, a solubilization enhancer, 0.1 ml), daunomycin dissolved in Neowater (200 μg/mouse in 0.1 ml vehicle, total dose during treatment 1 mg/mouse), or compound 9 dissolved in Neowater (400 μg/mouse in 0.1 ml vehicle, total dose during treatment 2 mg/mouse). During treatment, body weight was recorded to monitor toxicity of the treatment, and the tumors were measured with an external caliper. Tumor volume was calculated using the formula length×width×height×π/6. Statistical significance was assessed using student's t test, and differences were considered significant at p<0.05.
# [9] = test system: OVCAR-4 ovarian cancer cell line; test: NCI In Vitro Cell Line Screening, OVCAR-4; type: cell-based; details: Homo sapiens, read-out: log10 GI50 (converted)
# Procedure: as §1, §2, §3
smiles,measurement,setting,value
CC(C)(C)OC(=O)NCCCCCCNC(=O)COc1ccc2c(=O)c(-c3ccc(O)cc3)coc2c1 [Compound 9],GI50,K-562 leukemia cell line,646 nM
same,GI50,[1],1820 nM
same,inhibition at 0.03 µM,"[2]; Homo sapiens, at 30 nM",30%
same,inhibition at 0.3 µM,"[2]; Homo sapiens, at 300 nM",~50%
same,"DNA synthesis, ratio experimental/control (E/C)",[2]; compound at 0.3 μM,0.28 ± 0.2
same,inhibition at 3 µM,"[3]; Homo sapiens, NCI-H295R, at 3 μM, read-out: inhibition of DNA synthesis / growth",92%
same,"DNA synthesis, ratio experimental/control (E/C)",[3]; compound at 3 μM,0.08 ± 0.21
same,inhibition at 10 µM,[4],24 to 40%
same,GI50,[5],1950 nM
same,"DNA synthesis, ratio experimental/control (E/C)",[6],0.73 ± 0.13
same,GI50,[7],631 nM
same,incubation time at which plateau of inhibition of DNA synthesis was reached,MLS ovarian cancer cells,72 h
same,"DNA synthesis, ratio experimental/control (E/C)",MLS ovarian cancer cells; 9 (0.3 μM) + E2 30 nM,0.96 ± 0.24
same,"DNA synthesis, ratio experimental/control (E/C)",MLS ovarian cancer cells; 9 (0.3 μM) + E2 0.3 μM,2.39 ± 0.07
same,DNA synthesis (% of control),MLS ovarian cancer cells; 9 at 0.3 μM + 25 μM Z-VADFK,132%
same,"DNA synthesis, ratio experimental/control (E/C)",MLS ovarian cancer cells; 9 at 0.3 μM + Z-VADFK (25 μM),1.32 ± 0.26
same,suppression of the proliferative effect of estradiol,MLS ovarian cancer cells; 9 at 0.3 μM + estradiol 0.3 μM,could not suppress its proliferative effect
same,"DNA synthesis, ratio experimental/control (E/C)",MLS ovarian cancer cells; 9 at 0.3 μM alone (Table 3),0.61 ± 0.10
same,"DNA synthesis, ratio experimental/control (E/C)",MLS ovarian cancer cells; 9 at 0.3 μM alone (Table 4),0.74 ± 0.11
same,"DNA synthesis, ratio experimental/control (E/C)",MLS ovarian cancer cells; 9 at 3 μM + Z-VADFK 25 μM,0.76 ± 0.16
same,effect of apoptosis inhibitor on inhibition by 9,MLS ovarian cancer cells; 9 at 3 μM + Z-VADFK 25 μM,capable of reversing the inhibitory effect of 9 on DNA synthesis
same,"DNA synthesis, ratio experimental/control (E/C)",MLS ovarian cancer cells; 9 at 3 μM alone (Table 4),0.44 ± 0.14
same,effect on [3H]-thymidine incorporation into DNA,MLS ovarian cancer cells; 15 to 6000 nmol/l,dose dependent decreases
same,inhibition at 0.3 µM,"MLS ovarian cancer cells; Homo sapiens, 9 at 0.3 μM alone",26%
same,inhibition at 3 µM,"MLS ovarian cancer cells; Homo sapiens, 9 at 3 μM alone",56%
same,"DNA synthesis, ratio experimental/control (E/C)",MLS ovarian cancer cells; compound at 3 μM,0.03 ± 0.07
same,DNA synthesis (% of control),MLS ovarian cancer cells; estradiol 30 nM + 0.3 μM compound 9,96%
same,"DNA synthesis, ratio experimental/control (E/C)",[8],0.1 ± 0.15
same,weight reduction or death of treated mice,MLS ovarian xenografts,No weight reduction or death
same,weight reduction or death of treated mice,MLS ovarian xenografts; listed as t-Boc daidzein derivative,did not cause death or weight loss
same,GI50,[9],407 nM
